From PubChem BioAssay (NCI)
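Interpolation was linear, between the two tested concentrations surrounding the appropriate level; five concentrations were tested over 48 hours in 96-well plates. At the GI50, growth is halved. TGI is the concentration that stops growth completely.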

Tests used:
Experiment in all cases: NCI anticancer screen, dose series, 48 h
SNB-19 CNS = test system: SNB-19 CNS
UO-31 renal = test system: UO-31 renal
M14 melanoma = test system: M14 melanoma
SK-MEL-2 melanoma = test system: SK-MEL-2 melanoma
RPMI-8226 leukemia = test system: RPMI-8226 leukemia
HL-60(TB) leukemia = test system: HL-60(TB) leukemia
HCT-116 colon = test system: HCT-116 colon
MDA-MB-435 = test system: MDA-MB-435
PC-3 prostate = test system: PC-3 prostate
SR leukemia = test system: SR leukemia

Structure (SMILES) | TGI (SNB-19 CNS) [µM] | TGI (UO-31 renal) [µM] | TGI (M14 melanoma) [µM] | TGI (SK-MEL-2 melanoma) [µM] | TGI (RPMI-8226 leukemia) [µM] | TGI (HL-60(TB) leukemia) [µM] | GI50 (HCT-116 colon) [µM] | TGI (HCT-116 colon) [µM] | GI50 (SNB-19 CNS) [µM] | GI50 (UO-31 renal) [µM] | GI50 (M14 melanoma) [µM] | GI50 (SK-MEL-2 melanoma) [µM] | GI50 (MDA-MB-435) [µM] | TGI (MDA-MB-435) [µM] | GI50 (RPMI-8226 leukemia) [µM] | GI50 (HL-60(TB) leukemia) [µM] | GI50 (PC-3 prostate) [µM] | TGI (PC-3 prostate) [µM] | TGI (SR leukemia) [µM]
O=C(Nc1c(-c2nc3ccccc3[nH]2)sc(=S)n1-c1ccccc1)c1ccccc1 | > 100 | > 100 | > 100 | > 100 | > 100 | > 100 |  |  |  |  |  |  |  |  |  |  |  |  | 
Cn1c(CCC#N)nc2ccc(Br)cc2c1=O |  | > 100 | > 100 | > 100 | > 100 | > 100 |  |  |  |  |  |  |  |  |  |  |  |  | 
COc1ccc(-c2n[nH]nc2-c2csc3ccccc23)cc1OC | 45.1 | 20.8 | 15.6 | 7.65 | 59 | 25.1 | 2.84 | 15.3 | 4.67 | 2.78 | 1.95 | 1.44 | 0.337 | 3.52 | 3.64 | 1.7 | 3.08 | 35.4 | 
COC(OC)c1cccc2c1C1(O)CCC3(CC21)OCCCCO3 (stereo unspecified) | > 100 | > 100 | > 100 | > 100 | > 100 | > 100 |  | > 100 |  |  |  |  |  |  |  |  |  |  | > 100
Cc1ccccc1C(=O)Oc1ccc(Oc2ccccc2)cc1 | > 100 | > 100 | > 100 | > 100 | > 100 | > 100 |  | > 100 |  |  |  |  |  |  |  |  |  |  | 
Cc1ccc(C)c(NC(=O)c2cc(-c3ccc([N+](=O)[O-])cc3)nc(N)n2)c1 | > 100 | > 100 | > 100 | > 100 | > 100 | > 100 |  | > 100 |  |  |  |  |  |  |  |  |  |  | > 100
Cc1ccc(NC(=O)/C(CC(=O)c2c[n+](=O)c3ccccc3n2O)=N\NC(=O)C[n+]2ccccc2)cc1 | > 100 | > 100 | > 100 | > 100 | > 100 | > 100 |  | > 100 |  |  |  |  |  |  |  |  |  |  | > 100
COc1cnc2c(c1)C(=O)c1c-2n(CCCn2ccnc2)c(=O)c2cc(Cl)ccc12 | > 100 | 2.34 | 0.162 | 14.3 | 0.987 |  | 0.0147 | 0.216 | 0.0321 | 0.0264 | 0.0282 | 0.574 | 0.145 | 1.29 | 0.0504 |  | 0.0667 | > 100 | 
O=C(O)/C(=C/c1ccccc1[N+](=O)[O-])c1ccccc1 | > 100 | > 100 | > 100 | > 100 | > 100 | > 100 |  | > 100 |  |  |  |  |  |  |  |  |  |  | > 100
CC(c1ccc(Br)cc1)C(C(=O)O)C(=O)O (stereo unspecified) | > 100 | > 100 | > 100 | > 100 | > 100 | > 100 |  | > 100 |  |  |  |  |  |  |  |  |  |  | > 100
O=c1[nH]c(Br)nc2c(Br)c[nH]c12 | > 100 | > 100 | > 100 | > 100 | > 100 | > 100 |  | > 100 |  |  |  |  |  |  |  |  |  |  | 
CC(C)C(=O)N[C@@H](C)C(=O)N(Cc1ccc2ccccc2c1)N=O | > 100 | > 100 | > 100 | > 100 | > 100 |  |  | > 100 |  |  |  |  |  |  |  |  |  |  | 
CCCCCCCCCCCC(=O)OCC1OC(n2cc(F)c(=O)[nH]c2=O)C(N)C(OC(=O)CCCCCCCCCCC)C1O (stereo unspecified) | > 100 | > 100 | > 100 | > 100 | > 100 | > 100 |  | > 100 |  |  |  |  |  |  |  |  |  |  | > 100
CC(=O)OC12c3ccccc3C1CCCCCC21OCCCO1 (stereo unspecified) | > 100 | > 100 | > 100 | > 100 | > 100 | > 100 |  | > 100 |  |  |  |  |  |  |  |  |  |  | > 100
CCCN(CCC)c1ccc(CO)c(C)c1 | > 100 | > 100 | > 100 | 78 | 50 | 48.7 | 26.9 | > 100 | > 100 | > 100 | > 100 | 25.7 | 76.8 | > 100 | 18.4 | 21.6 | 17.4 | 57.6 | 
C=CC1CC12C(=O)C1OC2(C)C2C(=O)c3c(ccc4c3ccc3ccccc34)C(=O)C12 (stereo unspecified) | > 100 | > 100 | > 100 | > 100 | > 100 | > 100 | 52.6 | > 100 | > 100 | > 100 | 67.3 | > 100 | 41.4 | > 100 | 12 | 31 | 35.6 | > 100 | 
N=C(c1ccccc1)N(O)C1CCCCC1 | > 100 | > 100 | > 100 | > 100 |  | > 100 |  | > 100 |  |  |  |  |  |  |  |  |  |  | > 100
COC(=O)CCC(=O)c1c(C)[nH]c(/C=C2\N=C(c3ccc[nH]3)C=C2OC)c1C | 14.2 | 0.866 | 1.91 | 1.74 | 1.87 | 2.83 | 0.257 |  | 3.2 | 0.279 | 0.431 | 0.349 | 0.426 | 1.63 | 0.36 | 0.602 | 0.647 | 2.14 | 
O=S1(=O)CCN(Cc2ccccn2)CC1 | > 100 | > 100 | > 100 | > 100 | > 100 |  |  | > 100 |  |  |  |  |  | > 100 |  |  |  | > 100 | > 100
N=C(N)SCCc1cn2ccccc2n1 | > 100 | > 100 | > 100 | > 100 | > 100 | > 100 |  | > 100 |  |  |  |  |  |  |  |  |  |  | > 100
O=C(OCCOCBr)c1ccccc1 | > 100 | > 100 | > 100 | > 100 | > 100 | > 100 |  | > 100 |  |  |  |  |  |  |  |  |  |  | > 100
Nc1ccc(Nc2nc(F)nc(-c3c4ccccc4c4n3CCS4)n2)cc1 | 30.3 | 22.2 | 31.6 | 29.3 |  |  |  | 28 |  |  |  |  |  |  |  |  |  |  | 
